Experimental findings from patent US20180273564A1, “CARBON MONOXIDE RELEASING MOLECULES” (AUCKLAND UNISERVICES LIMITED, priority 2015, published 2018) are described below.

Each structure is given as a SMILES string. “And” between values parts separate entries of the source, which are not always exact repeats. Equal entries are not always repeated. “Also recorded” adds a separate entry of the source. Some results are limits rather than exact numbers.

Data set [1] concerns HCT116 (colon cancer cells). Nature of the data set: In vitro anticancer activity, sulforhodamine B assay. The data set is classed as cell-based. The conditions noted are these: HCT116, 72 h compound exposure, mean of 3 independent experiments. Here is the method:
(§1) HCT116 (colon cancer cells) and NCI-H460 (large cell lung carcinoma) cells were supplied by ATCC, while SiHa cells (cervical cancer) were supplied by Dr. David Cowan, Ontario Cancer Institute, Canada. Cells were maintained in αMEM (Life Technologies) with 5% FCS (fetal calf serum from Moregate Biotech) at 37° C. in a humidified incubator with 5% CO2. Cells were seeded at the appropriate density and allowed to settle for 24 hours, before the compounds (in 0.5% DMSO at the highest concentration) were added at 3-fold serial dilutions. After 72 h compound exposure, the cells were fixed with 10% TCA (trichloroacetic acid from Merck Millipore) for 1 h at 4° C., then washed before addition of 50 μl of 0.4% sulforhodamine B solution (Sigma Aldrich) for 30 min at room temperature in the dark. After washing with 1% acetic acid, the aminoxanthene dye was solubilised with 100 μl/well unbuffered Tris base (10 mM; Serva) on an orbital shaker for at least 30 min in the dark. The optical density was measured on a BioTek EL808 microplate reader at an absorbance of 490 and 450 nm (reference wavelength) and was used to determine the percentage of cell-growth inhibition. IC50 values were calculated with SigmaPlot12.5 using a three-parameter logistic sigmoidal dose-response curve between the calculated growth inhibition and the compound concentration.
In general terms: In SRB staining, fixed cells bind dye roughly in proportion to their protein.

The subject of data set [2] is NCI-H460 (large cell lung carcinoma) cells. Described as above. The data set is classed as cell-based. The conditions noted are these: NCI-H460, 72 h compound exposure, mean of 3 independent experiments. The method, then:
as §1

Data set [3] has as its system SiHa cells (cervical cancer). The description is as above. The data set is classed as cell-based. As to conditions: 72 h compound exposure, mean of 3 independent experiments. The method, then:
as §1

Data set [4] deals with cancer cell lines (HCT116, NCI-H460, SiHa). Nature of the data set: In vitro anticancer activity, statements over all cell lines tested. As to conditions: 72 h compound exposure. Here is the method:
as §1

Data set [5] is described as follows: Solubility in water.

Consider `O=C(Nc1cc[n+](Cc2ccccc2)cc1)c1ccccn1.[C-]#[O+].[C-]#[O+].[C-]#[O+].[Cl][Ru-]([Cl])[Cl]` [Compound 1, [HL][Ru(CO)3Cl3]], for which the IC50 – broadly, the concentration needed to halve the response being measured – in data set [1] is 24 µM; in data set [2], 73 µM; in data set [3], 26 µM. In data set [4], the “cytotoxicity to cancer cell lines” value is on record as “most active compound in all cancer cell lines tested; also recorded: moderately cytotoxic”. Further, the Solubility in water in data set [5] was 1.45 mM.

`CC[N+](CC)(CC)CC.[C-]#[O+].[C-]#[O+].[C-]#[O+].[Cl-].[Cl-].[Cl-].[Ru+2]` [Compound 2, [Et4N][Ru(CO)3Cl3]]: the IC50 in data set [1], in data set [2] and in data set [3] was above 1600 µM each time. Moreover, the “cytotoxicity to cancer cell lines” value in data set [4] is listed as “non-cytotoxic in the investigated concentration range; also recorded: not active against any of the cancer cell lines”. In addition, the Solubility in water in data set [5] stood at 6.78 mM.

`Cl.O=C(Nc1cc[n+](Cc2ccccc2)cc1)c1ccccn1` [[HL]Cl, 1-Benzyl-4-(picolinamido)pyridinium chloride]: the IC50 was found to be 20 µM in data set [1] (Homo sapiens, HCT-116); 54 µM in data set [2] (Homo sapiens); 30 µM in data set [3] (Homo sapiens). Besides, the solubility (in general, the dissolved amount per volume that the medium holds) in data set [5] (water) was 12.3 mM.

Consider `O=C(N=c1ccn(Cc2ccccc2)cc1)c1ccccn1.[C-]#[O+].[C-]#[O+].[C-]#[O+].[C-]#[O+].[C-]#[O+].[C-]#[O+].[Cl][Ru+].[Cl][Ru-]([Cl])[Cl]` [pH-CORM-1, [Ru(CO)3Cl(L)][Ru(CO)3Cl3]], for which the IC50 in data set [1] is ≤ 119 µM and 119 µM; in data set [2], 164 µM; in data set [3] it was 148 µM. The “cytotoxicity to cancer cell lines” value in data set [4] is given as “moderately cytotoxic”. For the same compound, in data set [5], the Solubility in water is reported as 1.56 mM.
